Laboratory results as given in publication PMC9457622, “Synthesis of Bio-Inspired 1,3-Diarylpropene Derivatives via Heck Cross-Coupling and Cytotoxic Evaluation on Breast Cancer Cells” (Molecules, 2022).
“Also recorded” adds a separate entry of the source.

Experiments:
Type in all cases: cell-based
[1] = test system: MDA-MB-231 human breast cancer cell lines; test: MTT proliferation (cytotoxicity) assay on MDA-MB-231 cells; settings: for cytotoxicity against MDA-MB-231 (in words): 10-100 µM, 24-72 h; for cytotoxicity against MDA-MB-231 (in words) / IC50: MTT; for SI (selectivity index) MDA-MB-231: IC50 normal cells (MCF-10A) divided by IC50 MDA-MB-231; for IC50: Homo sapiens, MDA-MB-231
Description: (§1) MCF-7 and MDA-MB-231 human breast cancer cell lines, as well as MCF-10A human normal breast cell lines, were used in this study. These cells were acquired from the American Type Culture Collection (Manassas, VA, USA). MCF-7 and MDAMB-231 cells were regularly cultured in Dulbecco’s Modified Eagle’s Medium (DMEM; Gibco, Waltham, MA, USA), and supplemented with 10% (v/v) foetal bovine serum (FBS; Gibco, Waltham, MA, USA) and 100 U/mL penicillin-streptomycin (PenStrep; Gibco, Waltham, MA, USA). MCF-10A cells were routinely cultured in DMEM/F12 (Gibco, Waltham, MA, USA) medium supplemented with 5% horse serum (Sigma-Aldrich, Burlington, MA, USA), 10 μg/mL of insulin (Sigma-Aldrich, Burlington, MA, USA), 20 ng/mL of human epidermal growth factor (hEGF; ThermoFisher, Waltham, MA, USA), 0.5 μg/mL of hydrocortisone (Sigma-Aldrich, Burlington, MA, USA) and 1 U/mL PenStrep. All cell lines were maintained in a humidified atmosphere with 5% CO2 at 37 °C.
(§2) The effects of the N-(2-cinnamylphenyl)amide products (i.e., isolated pure isomers) on MCF-7, MDA-MB-231 and MCF-10A were determined using a 3-(4,5-dimethylthiazol-2-yl)-2,5-diphenyltetrazolium bromide (MTT) proliferation assay. The cell lines were seeded in 96-well plates at a density of 1 × 10^4 cells/well and allowed to grow overnight for cell attachment. The cell lines were then treated with fresh assay medium, supplemented with increasing concentrations of tested compounds (10–100 µM) and incubated for 24–72 h at 37 °C. For this assay, the blank and negative controls used were the culture medium alone (without cells) and cells with culture medium only (untreated cells), respectively. […] At each incubation period (24, 48 and 72 h), 10 μL of MTT solution (5 mg/mL) was added to each well, and cells were further incubated for 4 h at 37 °C in 5% CO2. The solution mixture in each well was replaced with 100 μL of dimethyl sulfoxide (DMSO) to solubilise the MTT crystalline products. The optical density (O.D.) of each well was measured using a microplate reader (PowerWave-XS; Bio-Tek Instruments, Winooski, Vermont, USA) at 570 nm. The experiments were conducted in triplicate for each cell line.
(§3) The selectivity index (SI) was used to indicate the cytotoxic selectivity of the samples against cancer cells and normal cells. It was calculated from the IC50 of the samples in normal cells versus cancer cells. […] All data were analysed and presented as means standard deviation (±SD). Comparisons between each concentration of 18 samples were evaluated using Student’s t-test, where p < 0.05, p < 0.01 or p < 0.001 were considered as statistically significant relative to the untreated control cells.

[2] = test system: MCF-10A human normal breast cell lines; test: MTT proliferation (cytotoxicity) assay on MCF-10A normal cells
Description: as §1, §2, §3

[3] = test system: MCF-7 human breast cancer cell lines; test: MTT proliferation (cytotoxicity) assay on MCF-7 cells; settings: for cytotoxicity against MCF-7 (in words): 10-100 µM, 24-72 h; for cytotoxicity against MCF-7 (in words) / IC50: MTT; for SI (selectivity index) MCF-7: IC50 normal cells (MCF-10A) divided by IC50 MCF-7; for IC50: Homo sapiens, MCF7
Description: as §1, §2, §3

| SMILES | cytotoxicity against MDA-MB-231 (in words) [1] | SI (selectivity index) MDA-MB-231 ([1]; 48 h) | SI (selectivity index) MDA-MB-231 ([1]; 72 h) | IC50 ([1]; 24 h incubation) | IC50 ([1]; 48 h incubation) | IC50 ([1]; 72 h incubation) | IC50 ([2]; 24 h incubation) | IC50 ([2]; 48 h incubation) | IC50 ([2]; 72 h incubation) | cytotoxicity against MCF-7 (in words) [3] | SI (selectivity index) MCF-7 ([3]; 24 h) | SI (selectivity index) MCF-7 ([3]; 48 h) | SI (selectivity index) MCF-7 ([3]; 72 h) | IC50 ([3]; 24 h incubation) | IC50 ([3]; 48 h incubation) | IC50 ([3]; 72 h incubation) | SI (selectivity index) MDA-MB-231 ([1]; 24 h) | SI value ([3]; abstract, time not stated, considered general toxicity) |
| --- | --- | --- | --- | --- | --- | --- | --- | --- | --- | --- | --- | --- | --- | --- | --- | --- | --- | --- |
| CCCCC(=O)Nc1ccccc1/C=C/Cc1ccc(OC)cc1 [Compound 6d, (E)-N-(2-(3-(4-Methoxyphenyl)prop-1-en-1-yl)phenyl)pentanamide] | inactive; also recorded: low growth inhibition | < 0.94 | < 0.93 | > 100 µM | > 100 µM | > 100 µM | > 100 µM | 94.4 ± 9.71 µM | 92.9 ± 8.71 µM | low growth inhibition | > 1.06 | 1.01 | 1.41 | 94 ± 1.26 µM | 93.3 ± 2.15 µM | 65.8 ± 7.33 µM | – | – |
| CCCCCC(=O)Nc1ccccc1/C=C/Cc1ccc(OC)cc1 [Compound 6e, (E)-N-(2-(3-(4-Methoxyphenyl)prop-1-en-1-yl)phenyl)hexanamide] | low growth inhibition | < 0.90 | < 0.99 | > 100 µM | > 100 µM | > 100 µM | 80.9 ± 7.58 µM | 90.1 ± 8.8 µM | 98.5 ± 2.6 µM | low growth inhibition | < 0.81 | < 0.90 | < 0.99 | > 100 µM | > 100 µM | > 100 µM | < 0.81 | – |
| COc1ccc(C/C=C/c2ccccc2NC(=O)c2ccccc2C)cc1 [Compound 6i, (E)-N-(2-(3-(4-Methoxyphenyl)prop-1-en-1-yl)phenyl)-2-methylbenzamide] | – | – | > 1.36 | > 100 µM | > 100 µM | 73.8 ± 6.92 µM | > 100 µM | > 100 µM | > 100 µM | – | – | – | > 1.09 | > 100 µM | > 100 µM | 91.8 ± 7.95 µM | – | – |
| CCCCC(=O)Nc1ccccc1C/C=C/c1ccc(OC)cc1 [Compound 7d, (E)-N-(2-(3-(4-Methoxyphenyl)allyl)phenyl)pentanamide] | inactive; also recorded: low growth inhibition | < 0.75 | < 0.71 | > 100 µM | > 100 µM | > 100 µM | > 100 µM | 75 ± 8.58 µM | 71.2 ± 9.25 µM | low growth inhibition | > 1.70 | 1.54 | 1.49 | 58.9 ± 1.81 µM | 48.7 ± 3.46 µM | 47.9 ± 2.96 µM | – | < 2 |
| CCCCCC(=O)Nc1ccccc1C/C=C/c1ccc(OC)cc1 [Compound 7e, (E)-N-(2-(3-(4-Methoxyphenyl)allyl)phenyl)hexanamide] | inactive; also recorded: low growth inhibition | < 0.70 | < 0.69 | > 100 µM | > 100 µM | > 100 µM | > 100 µM | 70.3 ± 1.88 µM | 69.18 ± 0.01 µM | low growth inhibition | – | < 0.70 | 0.78 | > 100 µM | > 100 µM | 88.5 ± 2.37 µM | – | – |
| COc1ccc(/C=C/Cc2ccccc2NC(=O)c2ccccc2C)cc1 [Compound 7i, (E)-N-(2-(3-(4-Methoxyphenyl)allyl)phenyl)-2-methylbenzamide] | low growth inhibition | – | – | – | – | – | – | – | – | low growth inhibition | – | – | – | – | – | – | – | – |
